Data: patent publication US10071099B2, “Medicament for suppressing malignant tumor metastasis” (NATIONAL CEREBRAL AND CARDIOVASCULAR CENTER, priority 2014, dated 2018)

Key:
[1] = tested on: mouse melanoma B16-F10; assay: Blood-borne lung metastasis model, mouse melanoma tail vein injection (CDDP); assay type: in vivo
Protocol: Lung Metastasis Suppressing Effect of Medicament in Blood-Borne Metastasis Model Established by Injection of Mouse Melanoma to Mouse Tail Vein (CDDP)
Eight-week-old male C57BL6 mice (purchased from Japan SLC, Inc.) were used. Mouse melanoma B16-F10 was purchased from ATCC, and cultured in Dulbecco's Modified Eagle Medium (DMEM) (Life Technologies Corp.) containing 10% fetal calf serum (FCS) under 5% CO2 at 37° C. The cells in a semiconfluent state were treated with EDTA-trypsin (a 0.01 to 0.125% solution), centrifuged, and then suspended in serum free DMEM so as to be 3×10^6 cells/mL. The melanoma cell suspension (100 μL/mouse, 3×10^5 cells) was injected to the tail vein of the mice.
As pretreatment, 2.5 mg/kg of cisplatin (CDDP) was injected to the tail vein of the mice 2 days before the injection of the melanoma cells into the tail vein.
As an angiotensin type 2 receptor agonist, Compound A was used.
To the angiotensin type 2 receptor agonist group, a 0.5% carboxymethylcellulose aqueous solution prepared so as to contain 30 mg/kg of Compound A was orally given from 4 days before the start of the CDDP administration to the end of the experiment (14 days after the injection of melanoma cells) in a continuous manner.
To the control group, CDDP was not injected, and only a 0.5% carboxymethylcellulose aqueous solution not containing the agent was orally given for the experiment.
(§1) In addition, for the purpose of comparison, an experiment in which CDDP was not injected and Compound A was orally administered and an experiment in which CDDP was injected and the 0.5% carboxymethylcellulose aqueous solution not containing the agent (Compound A) was orally given were performed.
The number of animals in each group was n=5.
The lung metastasis of the tumor cells 14 days after the tumor cell injection was observed. […]

[2] = tested on: mouse melanoma B16-F10; assay: Blood-borne lung metastasis model, mouse melanoma tail vein injection (LPS); assay type: in vivo; details: for LPS-induced lung metastasis of tumor cells (nodules): 30 mg/kg-day oral from 4 days before LPS, LPS 1 mg/kg tail vein 4 to 5 hours before B16-F10 injection, 14 days after tumor cell injection, C57BL6 mice
Protocol: Lung Metastasis Suppressing Effect of Medicament in Blood-Borne Metastasis Model Established by Injection of Mouse Melanoma to Mouse Tail Vein (LPS)
Eight-week-old male C57BL6 mice (purchased from Japan SLC, Inc.) were used. Lipopolysaccharide (LPS) in an amount of 1 mg/kg was injected to the tail vein of each mouse, and mouse melanoma B16-F10 was injected to the tail vein 4 to 5 hours later. At this time, mouse melanoma was injected into the tail vein on the different side from the tail vein to which LPS was injected. Mouse melanoma B16-F10 was purchased from ATCC, and cultured in DMEM (Life Technologies Corp.) containing 10% FCS under 5% CO2 at 37° C. The cells in a semiconfluent state were treated with EDTA-trypsin (a 0.01 to 0.125% solution) and then centrifuged. As an angiotensin type 2 receptor agonist, Compounds A to E were used. The cells were suspended in serum free DMEM so as to be 3×10^6 cells/mL for Compound A administration group, and 2×10^6 cells/mL for Compound B to E administration groups. The melanoma cell suspension ([…]) at a density of 3×10^5 cells for Compound A administration group or at a density of […] for Compound B to E administration groups was injected to the tail vein of the mice.
To the angiotensin type 2 receptor agonist group, a 0.5% carboxymethylcellulose aqueous solution (0.2 mg/mL) prepared so as to contain 30 mg/kg-day of the agent (each of Compounds A to E) was orally given from 4 days before the start of the LPS administration to the end of the experiment (14 days after the injection of melanoma cells) in a continuous manner. To the control group, LPS was not injected, and only a 0.5% carboxymethylcellulose aqueous solution not containing the agent (any of Compounds A to E) was orally given for the experiment.
as §1, with “LPS” for “CDDP”, “(any of Compounds A to E)” for “(Compound A)”, “performed. […]” for “performed.”

Q: For `N.N.[Cl][Pt][Cl]` [cisplatin (CDDP), cisplatin, reference compound], which “effect of cisplatin (CDDP) administration on lung metastasis of tumor cells” value ([1]; CDDP 2.5 mg/kg tail vein 2 days before B16-F10 injection, 14 days after tumor cell injection) is on record?
A: augmented the lung metastasis of tumor cells

Q: With `CCN(CC)C(=O)[C@H](Cc1ccc(NC(=O)c2ccc(Cl)cc2N)cc1)C(=O)NS(=O)(=O)c1ccc2ccccc2c1` [Compound E, (2S)-2-{4-[(2-amino-4-chlorobenzoyl)amino]benzyl}-N,N-diethyl-N′-(2-naphthylsulfonyl)malonamide] as the molecule, how does the “LPS-induced lung metastasis of tumor cells (nodules)” value [2] read?
A: significantly suppressed the lung metastasis of tumor cells

Q: What does the source list for `CCN(CC)C(=O)[C@H](Cc1ccc(NC(=O)c2ccccc2)cc1)C(=O)NS(=O)(=O)c1ccc2ccccc2c1` [Compound A, (2S)-2-[4-(benzoylamino)benzyl]-N,N-diethyl-N′-(2-naphthylsulfonyl)malonamide]?
A: CDDP-induced exacerbation of the lung metastasis of tumor cells (nodules) ([1]; 30 mg/kg oral from 4 days before CDDP, CDDP 2.5 mg/kg tail vein 2 days before B16-F10 injection, 14 days after tumor cell injection, C57BL6 mice): significantly suppressed the CDDP-induced exacerbation of the lung metastasis; lung metastasis of tumor cells without CDDP administration ([1]; 30 mg/kg oral, no CDDP, 14 days after B16-F10 tail vein injection, C57BL6 mice): capable of suppressing the lung metastasis of tumor cells; LPS-induced lung metastasis of tumor cells (nodules) [2]: significantly suppressed the lung metastasis of tumor cells; lung metastasis of tumor cells without LPS administration ([2]; 30 mg/kg-day oral, no LPS, 14 days after B16-F10 tail vein injection): suppresses the lung metastasis of tumor cells
